Measured values reported in patent publication US8513462B2, “Pesticides and uses thereof” (Dow AgroSciences LLC, priority 2007, dated 2013).

Tested on: green peach aphid (Myzus persicae)
Test: Insecticidal test for green peach aphid in foliar spray assay
Format: in vivo
Conditions: 72 h, foliar spray on cabbage, Corrected % Control (Abbott) after three days, read-out: Rating against green peach aphid on cabbage (foliar spray)
Protocol: Squash seedlings with fully expanded cotyledon leaves were trimmed to one cotyledon per plant and infested with cotton aphid (wingless adults and nymphs) 1 day prior to chemical application. Each plant was examined before chemical application to ensure uniform infestation (ca. 30-70 aphids per plant). Compounds (2 mg) were dissolved in 2 ml of acetone:methanol (1:1) solvent, forming stock solutions of 1000 ppm. The stock solutions were diluted 5× with 0.025% Tween 20 in H2O to obtain a solution at 200 ppm. A hand-held Devilbiss aspirator type sprayer was used to apply the spray solutions until runoff to both sides of the squash cotyledon leaves. Four plants (4 replications) were used for each compound. Reference plants (solvent check) were sprayed with the diluent only. Treated plants were held in a holding room for 3 days at approximately 23° C. and 40% RH before the number of live aphids on each plant was recorded. Insecticidal activity was measured by Corrected % Control using Abbott's correction formula and presented in Table 1-Activity: Corrected % Control=100*(X−Y)/X • where X=No. of live aphids on solvent check plants • Y=No. of live aphids on treated plants Results are shown in Table 7. Insecticidal Test for Green Peach Aphid (Myzus persicae) in Foliar Spray Assay Cabbage seedlings grown in 3-inch pots, with 2-3 small (3-5 cm) true leaves, were used as test substrate. The seedlings were infested with 20-50 green peach aphids (wingless adult and nymph) 1-2 days prior to chemical application. Four seedlings were used for each treatment. Compounds (2 mg) were dissolved in 2 ml of acetone:methanol (1:1) solvent, forming stock solutions of 1000 ppm. The stock solutions were diluted 5× with 0.025% Tween 20 in H2O to obtain a solution at 200 ppm. A hand-held Devilbiss aspirator sprayer was used for spraying a solution to both sides of cabbage leaves until runoff. Reference plants (solvent check) were sprayed with the diluent only. Treated plants were held in a holding room for three days at approximately 23° C. and 40% RH prior to grading. Evaluation was conducted by counting the number of live aphids per plant under a microscope. Insecticidal activity was measured by using Abbott's correction formula: Corrected % Control=100*(X−Y)/X • where X=No. of live aphids on solvent check plants • Y=No. of live aphids on treated plants

Structure (SMILES)	pest or weed control at 200 ppm
CC(c1ccc(C(F)(F)F)nc1)S(C)(=O)=Nc1ncc(Cc2ccccc2)s1 (racemic) [Compound 61, 5-{1-[(5-benzyl-1,3-thiazol-2-yl)(methyl)sulfonimidoyl]ethyl}-2-(trifluoromethyl)pyridine]	80 to 100%
CC(c1ccc(C(F)(F)F)nc1)S(C)(=O)=Nc1nc2c(s1)CCc1nonc1-2 (racemic) [Compound 65, 7-[(methyl(oxo){1-[6-(trifluoromethyl)-3-pyridinyl]ethyl}-λ^6-sulfanylidene)amino]-4,5-dihydro[1,3]thiazolo[4,5-e][2,1,3]-benzoxadiazole]	80 to 100%
CC(c1ccc(C(F)(F)F)nc1)S(C)(=O)=Nc1nnc(C(F)F)s1 (racemic) [Compound 69, 5-{1-[[5-(difluoromethyl)-1,3,4-thiadiazol-2-yl](methyl)sulfonimidoyl]ethyl}-2-(trifluoromethyl)pyridine]	80 to 100%
CC(c1ccc(C(F)(F)F)nc1)S(C)(=O)=Nc1cc(F)ccn1 (centres unmarked) [Compound 3, 3-[1-ethyl(N-(2-(4-fluoro)pyridine)-sulfoximinyl)(methyl)]-6-trifluoromethylpyridine]	80 to 100%
CC(c1ccc(C(F)(F)F)nc1)S(C)(=O)=Nc1ncccc1F (centres unmarked) [Compound 9]	80 to 100%
CC(c1ccc(C(F)(F)F)nc1)S(C)(=O)=Nc1cccc(F)n1 (centres unmarked) [Compound 10]	< 80%
CC(c1ccc(C(F)(F)F)nc1)S(C)(=O)=Nc1cccc(C(F)(F)F)n1 (centres unmarked) [Compound 11]	< 80%
Cc1csc(N=S(C)(=O)C(C)c2ccc(C(F)(F)F)nc2)n1 (centres unmarked) [Compound 14]	< 80%
CC(c1ccc(C(F)(F)F)nc1)S(C)(=O)=Nc1ncc(C#N)s1 (centres unmarked) [Compound 16]	80 to 100%
CC(c1ccc(C(F)(F)F)nc1)S(C)(=O)=Nc1ccsc1[N+](=O)[O-] (centres unmarked) [Compound 17]	< 80%
CCOC(=O)c1csc(N=S(C)(=O)C(C)c2ccc(C(F)(F)F)nc2)n1 (centres unmarked) [Compound 18]	80 to 100%
Cc1ccc(-c2csc(N=S(C)(=O)C(C)c3ccc(C(F)(F)F)nc3)n2)cc1 (centres unmarked) [Compound 19, 5-{1-[methyl(4-(4-methylphenyl)-1,3-thiazol-2-yl)sulfonimidoyl]ethyl}-2-(trifluoromethyl)pyridine]	80 to 100%
CC(c1ccc(C(F)(F)F)nc1)S(C)(=O)=Nc1nc(-c2ccc(Cl)c(Cl)c2)cs1 (centres unmarked) [Compound 20]	80 to 100%
CC(c1ccc(C(F)(F)F)nc1)S(C)(=O)=Nc1nc(-c2cccc(Cl)c2)cs1 (centres unmarked) [Compound 21]	80 to 100%
CC(c1ccc(C(F)(F)F)nc1)S(C)(=O)=Nc1nc(-c2ccc(Cl)cc2)cs1 (centres unmarked) [Compound 22]	80 to 100%
COc1ccc(-c2csc(N=S(C)(=O)C(C)c3ccc(C(F)(F)F)nc3)n2)cc1 (centres unmarked) [Compound 23]	80 to 100%
CC(c1ccc(C(F)(F)F)nc1)S(C)(=O)=Nc1nc2ccccc2s1 (centres unmarked) [Compound 25, 3-[1-ethyl(N-(2-benzothiazole)-sulfoximinyl)(methyl)]-6-trifluoromethylpyridine]	< 80%
CC(c1ccc(C(F)(F)F)nc1)S(C)(=O)=Nc1nc(C(F)(F)F)cs1 (centres unmarked) [Compound 26, 3-[1-ethyl(N-(2-(4-trifluoromethyl)thiazole)-sulfoximinyl)(methyl)]-6-trifluoromethylpyridine]	80 to 100%
CCc1csc(N=S(C)(=O)C(C)c2ccc(C(F)(F)F)nc2)n1 (centres unmarked) [Compound 28]	80 to 100%

Structure (SMILES)	pest or weed control at 200 ppm
CCOC(C)(C)c1csc(N=S(C)(=O)C(C)c2ccc(C(F)(F)F)nc2)n1 (centres unmarked) [Compound 31]	80 to 100%
CC(c1ccc(C(F)(F)F)nc1)S(C)(=O)=Nc1nc(-c2ccncc2)cs1 (centres unmarked) [Compound 34]	80 to 100%
Cc1ccsc1-c1nc(N=S(C)(=O)C(C)c2ccc(C(F)(F)F)nc2)sc1C (centres unmarked) [Compound 36]	80 to 100%
CC(c1ccc(C(F)(F)F)nc1)S(C)(=O)=Nc1nc(-c2csc3ccccc23)cs1 (centres unmarked) [Compound 40]	80 to 100%
CC(c1ccc(C(F)(F)F)nc1)S(C)(=O)=Nc1nc(-c2cc(-c3ccc(Cl)cc3)no2)cs1 (centres unmarked) [Compound 42]	80 to 100%
CC(c1ccc(C(F)(F)F)nc1)S(C)(=O)=Nc1nc(-c2ccc3c(c2)OCO3)cs1 (centres unmarked) [Compound 47]	80 to 100%
CC(c1ccc(C(F)(F)F)nc1)S(C)(=O)=Nc1nc(-c2ccc([N+](=O)[O-])cc2)cs1 (centres unmarked) [Compound 49]	80 to 100%
Cc1cc(-c2csc(N=S(C)(=O)C(C)c3ccc(C(F)(F)F)nc3)n2)ccc1Cl (centres unmarked) [Compound 50]	80 to 100%
COc1ccc(-c2csc(N=S(C)(=O)C(C)c3ccc(C(F)(F)F)nc3)n2)c(OC)c1 (centres unmarked) [Compound 53]	80 to 100%
COc1ccc(-c2csc(N=S(C)(=O)Cc3ccc(Cl)nc3)n2)cc1 (centres unmarked) [Compound 57, 5-{[methyl[4-(4-methoxyphenyl)-1,3-thiazol-2-yl]sulfonimidoyl]methyl}-2-chloropyridine]	< 80%
CCCCC(c1ccc(C(F)(F)F)nc1)S(C)(=O)=Nc1nc(-c2ccc(OC)cc2)cs1 (centres unmarked) [Compound 60, 5-{1-[methyl(4-(4-methoxyphenyl)-1,3-thiazol-2-yl)sulfonimidoyl]pentyl}-2-(trifluoromethyl)pyridine]	< 80%
CC(c1ccc(C(F)(F)F)nc1)S(C)(=O)=Nc1ncc(-c2ccccc2)s1 (centres unmarked) [Compound 62, 5-{1-[methyl(5-phenyl-1,3-thiazol-2-yl)sulfonimidoyl]ethyl}-2-(trifluoromethyl)pyridine]	80 to 100%
Cc1cnc(N=S(C)(=O)C(C)c2ccc(C(F)(F)F)nc2)s1 (centres unmarked) [Compound 63, 5-{1-[methyl(5-methyl-1,3-thiazol-2-yl)sulfonimidoyl]ethyl}-2-(trifluoromethyl)pyridine]	80 to 100%
CSCc1cnc(N=S(C)(=O)C(C)c2ccc(C(F)(F)F)nc2)s1 (centres unmarked) [Compound 64, 5-[1-(methyl{5-[(methylsulfanyl)methyl]-1,3-thiazol-2-yl}sulfonimidoyl)ethyl]-2-(trifluoromethyl)pyridine]	80 to 100%
Cc1sc(N=S(C)(=O)C(C)c2ccc(C(F)(F)F)nc2)nc1-c1ccccc1 (centres unmarked) [Compound 66, 5-{1-[methyl(5-methyl-4-phenyl-1,3-thiazol-2-yl)sulfonimidoyl]ethyl}-2-(trifluoromethyl)pyridine]	80 to 100%
Cc1nc(N=S(C)(=O)C(C)c2ccc(C(F)(F)F)nc2)sc1C (centres unmarked) [Compound 67, 5-{1-[(4,5-dimethyl-1,3-thiazol-2-yl)(methyl)sulfonimidoyl]ethyl}-2-(trifluoromethyl)pyridine]	80 to 100%
Cc1sc(N=S(C)(=O)C(C)c2ccc(C(F)(F)F)nc2)nc1-c1ccc(Br)cc1 (centres unmarked) [Compound 68, 5-{1-[[4-(4-bromophenyl)-5-methyl-1,3-thiazol-2-yl](methyl)sulfonimidoyl]ethyl}-2-(trifluoromethyl)pyridine]	80 to 100%
CCc1coc(N=S(C)(=O)C(C)c2ccc(C(F)(F)F)nc2)n1 (centres unmarked) [Compound 70, 5-{1-[methyl(4-ethyl-1,3-oxazol-2-yl)sulfonimidoyl]ethyl}-2-(trifluoromethyl)pyridine]	80 to 100%
Cc1coc(N=S(C)(=O)C(C)c2ccc(C(F)(F)F)nc2)n1 (centres unmarked) [Compound 71]	80 to 100%
